Test system: not listed separately
Assay: Antiprion activity against human prion protein Fukuoka-1 infected mouse F3 cells assessed as reduction of PrPSc level by Western blot method
Type: cell-based
Conditions: N2a #58 F3

Structure (SMILES) | EC50 [nM]
COc1ccc2nc3cc(Cl)ccc3c(NC3CC4CCC(C3)N4Cc3ccccc3)c2c1 (configuration not stated) | 540
COc1ccc2nc3cc(Cl)ccc3c(NC3CCN(CCCc4ccccc4)CC3)c2c1 | 1040
COc1ccc2nc3cc(Cl)ccc3c(Nc3ccc(CN4CCN(C)CC4)cc3)c2c1 | 860
COc1ccc2nc3cc(Cl)ccc3c(Nc3ccc(C(=O)N4CCN(C)CC4)cc3)c2c1 | 4100
COc1ccc2nc3cc(Cl)ccc3c(Nc3ccc(N4CCN(C)CC4)cc3)c2c1 | 680
Clc1ccc2c(NC3CCN(Cc4ccccc4)CC3)c3c(nc2c1)CCCC3 | 1190
COc1ccc2nc3cc(Cl)ccc3c(NC3CCN(Cc4ccccc4)CC3)c2c1 | 800

Test system: MDCK
Assay: Permeability from basolateral to apical side of in wild type MDCK cells assessed as adsorption on transwell at 10 uM after 2 hrs
Type: ADME, cell-based, Canis lupus familiaris
Conditions: dog

Structure (SMILES) | permeability [%]
COc1ccc2nc3cc(Cl)ccc3c(Nc3ccc(N4CCN(C)CC4)cc3)c2c1 | 3.5

Test system: not listed separately
Assay: Solubility of the compound in phosphate buffer at 50 uM
Type: physicochemical
Conditions: not given

Structure (SMILES) | solubility
COc1ccc2nc3cc(Cl)ccc3c(NC3CC4CCC(C3)N4Cc3ccccc3)c2c1 (configuration not stated) | Insoluble

Test system: MDCK
Assay: Permeability from apical to basolateral side of in wild type MDCK cells assessed as adsorption on transwell at 10 uM after 2 hrs
Type: ADME, cell-based, Canis lupus familiaris
Conditions: dog

Structure (SMILES) | permeability [%]
COc1ccc2nc3cc(Cl)ccc3c(Nc3ccc(N4CCN(C)CC4)cc3)c2c1 | 11.4

Test system: N167
Assay: Antiprion activity against mouse prion protein 22L infected mouse N167 cells assessed as drug level required for more than 99 percent reduction of PrPSc level by Western blot method
Type: cell-based
Conditions: not given

Structure (SMILES) | Activity [µM]
COc1ccc2nc3cc(Cl)ccc3c(NC3CC4CCC(C3)N4Cc3ccccc3)c2c1 (configuration not stated) | 1
COc1ccc2nc3cc(Cl)ccc3c(NC3CCN(CCCc4ccccc4)CC3)c2c1 | 1
COc1ccc2nc3cc(Cl)ccc3c(Nc3ccc(CN4CCN(C)CC4)cc3)c2c1 | 2
COc1ccc2nc3cc(Cl)ccc3c(Nc3ccc(C(=O)N4CCN(C)CC4)cc3)c2c1 | 7
COc1ccc2nc3cc(Cl)ccc3c(Nc3ccc(N4CCN(C)CC4)cc3)c2c1 | 1.5
Clc1ccc2c(NC3CCN(Cc4ccccc4)CC3)c3c(nc2c1)CCCC3 | 3
COc1ccc2nc3cc(Cl)ccc3c(NC3CCN(Cc4ccccc4)CC3)c2c1 | 1.5

Test system: MDCK
Assay: Permeability from apical to basolateral side of in P-glycoprotein-mediated MDCK cells over expressing human MDR1 assessed as cell retention at 10 uM after 2 hrs
Type: ADME, cell-based, Canis lupus familiaris
Conditions: dog

Structure (SMILES) | permeability [%]
COc1ccc2nc3cc(Cl)ccc3c(Nc3ccc(N4CCN(C)CC4)cc3)c2c1 | 67

Test system: not listed separately
Assay: Permeability from basolateral to apical side of in wild type MDCK cells assessed as mass balance at 10 uM after 2 hrs
Type: ADME, cell-based, Canis lupus familiaris
Conditions: dog, read-out: permeability

Structure (SMILES) | recovery at 2 h, 10 µM [%]
COc1ccc2nc3cc(Cl)ccc3c(Nc3ccc(N4CCN(C)CC4)cc3)c2c1 | 75.3

Test system: MDCK
Assay: Permeability from apical to basolateral side of in wild type MDCK cells assessed as cell retention at 10 uM after 2 hrs
Type: ADME, cell-based, Canis lupus familiaris
Conditions: dog

Structure (SMILES) | permeability [%]
COc1ccc2nc3cc(Cl)ccc3c(Nc3ccc(N4CCN(C)CC4)cc3)c2c1 | 66.4

Test system: human MDR1
Assay: not given
Type: ADME, cell-based, Canis lupus familiaris
Conditions: dog, MDCK-MDR1; read-out: permeability

Structure (SMILES) | recovery at 2 h, 10 µM [%]
COc1ccc2nc3cc(Cl)ccc3c(Nc3ccc(N4CCN(C)CC4)cc3)c2c1 | 12.6

Test system: human MDR1
Assay: not given
Type: ADME, cell-based, Canis lupus familiaris
Conditions: dog, MDCK-MDR1

Structure (SMILES) | Papp A→B at 2 h, 10 µM [×10⁻⁶ cm/s]
COc1ccc2nc3cc(Cl)ccc3c(Nc3ccc(N4CCN(C)CC4)cc3)c2c1 | 0.14

Test system: not listed separately
Assay: in vitro
Conditions: dog, MDCK

Structure (SMILES) | efflux ratio at 2 h, 10 µM
COc1ccc2nc3cc(Cl)ccc3c(Nc3ccc(N4CCN(C)CC4)cc3)c2c1 | 1.2

Test system: MDCK
Assay: not given
Type: ADME, cell-based, Canis lupus familiaris
Conditions: dog, 2 h, 10 µM

Structure (SMILES) | permeability [%]
COc1ccc2nc3cc(Cl)ccc3c(Nc3ccc(N4CCN(C)CC4)cc3)c2c1 | 3.1

Test system: not listed separately
Assay: Antiprion activity against mouse prion protein RML infected mouse ScN2a cells assessed as reduction of PrPSc level by Western blot method
Type: cell-based
Conditions: not given

Structure (SMILES) | EC50 [nM]
COc1ccc2nc3cc(Cl)ccc3c(NC3CC4CCC(C3)N4Cc3ccccc3)c2c1 (configuration not stated) | 54
COc1ccc2nc3cc(Cl)ccc3c(NC3CCN(CCCc4ccccc4)CC3)c2c1 | 93
COc1ccc2nc3cc(Cl)ccc3c(Nc3ccc(CN4CCN(C)CC4)cc3)c2c1 | 60
COc1ccc2nc3cc(Cl)ccc3c(Nc3ccc(C(=O)N4CCN(C)CC4)cc3)c2c1 | 1230
COc1ccc2nc3cc(Cl)ccc3c(Nc3ccc(N4CCN(C)CC4)cc3)c2c1 | 100
Clc1ccc2c(NC3CCN(Cc4ccccc4)CC3)c3c(nc2c1)CCCC3 | 540
COc1ccc2nc3cc(Cl)ccc3c(NC3CCN(Cc4ccccc4)CC3)c2c1 | 420

Test system: human MDR1
Assay: Permeability from basolateral to apical side of in MDCK cells overexpressing human MDR1 assessed as mass balance at 10 uM after 2 hrs
Type: ADME, cell-based, Canis lupus familiaris
Conditions: dog, read-out: permeability

Structure (SMILES) | recovery at 2 h, 10 µM [%]
COc1ccc2nc3cc(Cl)ccc3c(Nc3ccc(N4CCN(C)CC4)cc3)c2c1 | 73

Test system: human MDR1
Assay: in vitro
Conditions: dog, MDCK-MDR1

Structure (SMILES) | efflux ratio at 2 h, 10 µM
COc1ccc2nc3cc(Cl)ccc3c(Nc3ccc(N4CCN(C)CC4)cc3)c2c1 | 2.4

Test system: MDCK
Assay: Permeability from basolateral to apical side of in P-glycoprotein-mediated MDCK cells over expressing human MDR1 assessed as cell retention at 10 uM after 2 hrs
Type: ADME, cell-based, Canis lupus familiaris
Conditions: dog

Structure (SMILES) | permeability [%]
COc1ccc2nc3cc(Cl)ccc3c(Nc3ccc(N4CCN(C)CC4)cc3)c2c1 | 44.2

Test system: MDCK
Assay: Permeability from basolateral to apical side of in wild type MDCK cells assessed as cell retention at 10 uM after 2 hrs
Type: ADME, cell-based, Canis lupus familiaris
Conditions: dog

Structure (SMILES) | permeability [%]
COc1ccc2nc3cc(Cl)ccc3c(Nc3ccc(N4CCN(C)CC4)cc3)c2c1 | 27.5

Test system: ScN2a
Assay: Antiprion activity against mouse prion protein RML infected mouse ScN2a cells assessed as drug level required for more than 99 percent reduction of PrPSc level by Western blot method
Type: cell-based
Conditions: not given

Structure (SMILES) | Activity [µM]
COc1ccc2nc3cc(Cl)ccc3c(NC3CC4CCC(C3)N4Cc3ccccc3)c2c1 (configuration not stated) | 2
COc1ccc2nc3cc(Cl)ccc3c(NC3CCN(CCCc4ccccc4)CC3)c2c1 | 1
COc1ccc2nc3cc(Cl)ccc3c(Nc3ccc(CN4CCN(C)CC4)cc3)c2c1 | 0.5
COc1ccc2nc3cc(Cl)ccc3c(Nc3ccc(C(=O)N4CCN(C)CC4)cc3)c2c1 | 5
COc1ccc2nc3cc(Cl)ccc3c(Nc3ccc(N4CCN(C)CC4)cc3)c2c1 | 0.4
Clc1ccc2c(NC3CCN(Cc4ccccc4)CC3)c3c(nc2c1)CCCC3 | 1
COc1ccc2nc3cc(Cl)ccc3c(NC3CCN(Cc4ccccc4)CC3)c2c1 | 1

Test system: not listed separately
Assay: Permeability from apical to basolateral side of in wild type MDCK cells assessed as mass balance at 10 uM after 2 hrs
Type: ADME, cell-based, Canis lupus familiaris
Conditions: dog, read-out: permeability

Structure (SMILES) | recovery at 2 h, 10 µM [%]
COc1ccc2nc3cc(Cl)ccc3c(Nc3ccc(N4CCN(C)CC4)cc3)c2c1 | 11.3

Target: Major prion protein (Homo sapiens) (UniProt P04156)
Assay: Binding affinity to truncated human PrP 121-231 at 50 uM by surface plasmon resonance method
Conditions: not given

Structure (SMILES) | RUmax [%]
COc1ccc2nc3cc(Cl)ccc3c(NC3CCN(CCCc4ccccc4)CC3)c2c1 | 115
COc1ccc2nc3cc(Cl)ccc3c(Nc3ccc(CN4CCN(C)CC4)cc3)c2c1 | 207
COc1ccc2nc3cc(Cl)ccc3c(Nc3ccc(C(=O)N4CCN(C)CC4)cc3)c2c1 | 232
COc1ccc2nc3cc(Cl)ccc3c(Nc3ccc(N4CCN(C)CC4)cc3)c2c1 | 120
Clc1ccc2c(NC3CCN(Cc4ccccc4)CC3)c3c(nc2c1)CCCC3 | 138
COc1ccc2nc3cc(Cl)ccc3c(NC3CCN(Cc4ccccc4)CC3)c2c1 | 65.4

Test system: MDCK
Assay: not given
Type: ADME, cell-based, Canis lupus familiaris
Conditions: dog, 2 h, 10 µM
Remark: another data set of the same source

Structure (SMILES) | permeability [%]
COc1ccc2nc3cc(Cl)ccc3c(Nc3ccc(N4CCN(C)CC4)cc3)c2c1 | 6.1

Test system: not listed separately
Assay: Effective permeability of the compound at pH 7.4 at 30 to 50 uM by PAMPA assay
Type: ADME
Conditions: read-out: Peff

Structure (SMILES) | Papp at up to 50 µM [×10⁻⁶ cm/s]
COc1ccc2nc3cc(Cl)ccc3c(NC3CC4CCC(C3)N4Cc3ccccc3)c2c1 (configuration not stated) | 8.31
COc1ccc2nc3cc(Cl)ccc3c(Nc3ccc(N4CCN(C)CC4)cc3)c2c1 | 8.13

Test system: N2a #58 F3
Assay: Antiprion activity against human prion protein Fukuoka-1 infected mouse F3 cells assessed as drug level required for more than 99 percent reduction of PrPSc level by Western blot method
Type: cell-based
Conditions: not given

Structure (SMILES) | Activity [µM]
COc1ccc2nc3cc(Cl)ccc3c(NC3CC4CCC(C3)N4Cc3ccccc3)c2c1 (configuration not stated) | 1.5
COc1ccc2nc3cc(Cl)ccc3c(NC3CCN(CCCc4ccccc4)CC3)c2c1 | 3
COc1ccc2nc3cc(Cl)ccc3c(Nc3ccc(CN4CCN(C)CC4)cc3)c2c1 | 3
COc1ccc2nc3cc(Cl)ccc3c(Nc3ccc(N4CCN(C)CC4)cc3)c2c1 | 1.5
Clc1ccc2c(NC3CCN(Cc4ccccc4)CC3)c3c(nc2c1)CCCC3 | 5

Test system: human MDR1
Assay: not given
Type: ADME, cell-based, Canis lupus familiaris
Conditions: dog, MDCK-MDR1
Remark: another data set of the same source

Structure (SMILES) | Papp B→A at 2 h, 10 µM [×10⁻⁶ cm/s]
COc1ccc2nc3cc(Cl)ccc3c(Nc3ccc(N4CCN(C)CC4)cc3)c2c1 | 0.34

Test system: not listed separately
Assay: Antiprion activity against mouse prion protein 22L infected mouse N167 cells assessed as reduction of PrPSc level by Western blot method
Type: cell-based
Conditions: not given

Structure (SMILES) | EC50 [nM]
COc1ccc2nc3cc(Cl)ccc3c(NC3CC4CCC(C3)N4Cc3ccccc3)c2c1 (configuration not stated) | 350
COc1ccc2nc3cc(Cl)ccc3c(NC3CCN(CCCc4ccccc4)CC3)c2c1 | 320
COc1ccc2nc3cc(Cl)ccc3c(Nc3ccc(CN4CCN(C)CC4)cc3)c2c1 | 350
COc1ccc2nc3cc(Cl)ccc3c(Nc3ccc(C(=O)N4CCN(C)CC4)cc3)c2c1 | 4200
COc1ccc2nc3cc(Cl)ccc3c(Nc3ccc(N4CCN(C)CC4)cc3)c2c1 | 420
Clc1ccc2c(NC3CCN(Cc4ccccc4)CC3)c3c(nc2c1)CCCC3 | 420
COc1ccc2nc3cc(Cl)ccc3c(NC3CCN(Cc4ccccc4)CC3)c2c1 | 490

Test system: not listed separately
Assay: Cytotoxicity against mouse N2A cells assessed as maximal tolerant concentration
Type: cell-based
Conditions: read-out: MTD

Structure (SMILES) | MNTC [µM]
COc1ccc2nc3cc(Cl)ccc3c(NC3CC4CCC(C3)N4Cc3ccccc3)c2c1 (configuration not stated) | 2
COc1ccc2nc3cc(Cl)ccc3c(NC3CCN(CCCc4ccccc4)CC3)c2c1 | 4
COc1ccc2nc3cc(Cl)ccc3c(Nc3ccc(CN4CCN(C)CC4)cc3)c2c1 | 4
COc1ccc2nc3cc(Cl)ccc3c(Nc3ccc(C(=O)N4CCN(C)CC4)cc3)c2c1 | 12
COc1ccc2nc3cc(Cl)ccc3c(Nc3ccc(N4CCN(C)CC4)cc3)c2c1 | 2.5
Clc1ccc2c(NC3CCN(Cc4ccccc4)CC3)c3c(nc2c1)CCCC3 | 5
COc1ccc2nc3cc(Cl)ccc3c(NC3CCN(Cc4ccccc4)CC3)c2c1 | 2
